Measurements from patent US10350204B2, “Methods for treating cognitive deficits associated with fragile X syndrome” (Wisconsin Alumni Research Foundation, priority 2015, dated 2019).

What was measured:
Type in all cases: cell-based, mouse
[1] = system: Fmr1 KO and wildtype NPCs; assay: Western blot analyses of p-AKT, p-MDM2, MDM2 and P53 in NPCs
Experimental: NPCs were isolated from the dentate gyms of 8 to 10-week-old male Fmr1 KO mice and wild-type (wildtype) littermate controls based on our published methods (12, 64). Independently isolated cells serve as biological replicates. Proliferation and differentiation of NPCs was analyzed as described (11, 12, 61). We used only early passage cells (between passage 4 and 10) and only the same passage numbers of wildtype and Fmr1 KO cells. For each experiment, triplicate wells of cells were analyzed, and results were averaged as one data point (n=1). At least 3 independent biological replicates were used (n=3) for statistical analyses.
Protein samples were separated on SDS-PAGE gels (Bio-Rad), transferred to PVDF membranes (Millipore), and incubated with primary antibodies. After incubation with fluorescence-labeled secondary antibodies (Li—CoR), the membranes were imaged using Li—CoR and quantification was performed using ImageJ software. At least n=3 independent blots were used for statistical analysis.
For loading controls, membranes were probed with the mouse antibody against GAPDH.

[2] = system: Fmr1 KO and wildtype NPCs; assay: BrdU proliferation assay of cultured NPCs
Experimental: We used only early passage cells (between passage 4 and 10) and only the same passage numbers of wild type (WT) and Fmr1 KO cells. For each experiment, triplicate wells of cells were analyzed, and results were averaged as one data point (n=1). At least 3 independent experiments (n=3) were performed and used for statistical analyses for each analysis. To study cell proliferation, we dissociated neural stem cells with trypsin and plated them on poly-L-ornithine and laminin-coated 24 well plate (Scientific fisher, 87721) at a density of 100,000 cells per well in proliferation medium. At 20 h post-plating, 5 μM 5-bromo-2.′-deoxyuridine (BrdU, Sigma-Aldrich) was added into the culture medium for 6 h. NPCs were then washed with PBS and fixed with 4% paraformaldehyde for 30 min at room temperature, followed by immunohistochemical analysis. To detect BrdU incorporation, fixed cells were pretreated with 1M HCl for 30 min at 37° C., and then washed with borate buffer, pH 8.5, for 30 min. We then followed our standard immunohistochemistry protocol^10. BrdU incorporation assay was determined using an Operetta high content imaging system (PerkinElmer, Inc) and Harmony quantification software (PerkinElmer, Inc). The percentage of proliferating cells was defined as the number of BrdU-labeled cells divided by total DAPI-positive cells.
For proliferation assay in vitro, 1 μM MK2206 (Selleckchem, S1078) (AKT phosphorylation inhibitor), or 2 μM Nutlin-3 (Nt3, Selleckchem, 51061) (Mdm2 inhibitor), or 1 μM RG7112 (Selleckchem, S7030) (Mdm2 inhibitor) or YH239-EE (Selleckchem 57489) (4 μM) (Mdm2 inhibitor) was added to proliferating NPCs at 6 hours post-plating. Cells were then pulse labeled 18 hours later with 5 μM 5-bromo-2′-deoxyuridine (BrdU, Sigma-Aldrich, B5002) and incubated for 6 hours in the presence of inhibitor, followed by fixation, staining, and quantification.

[3] = system: Fmr1 KO and wildtype NPCs; assay: Differentiation assay of cultured NPCs (Tuj1 neurons, GFAP astrocytes); conditions: 4 days
Experimental: Proliferation and differentiation of aNPCs were analyzed using our published methods (Guo et al., Nature Med. (2011); Guo et al., Neuron 70, 924-938 (2011); Luo et al., PLoS Genet 6 (2010); Liu et al., Cell Stem Cell 6 (2010)). We used only early passage cells (between passage 4 and 10) and only the same passage numbers of wild type (WT) and Fmr1 KO cells. For each experiment, triplicate wells of cells were analyzed, and results were averaged as one data point (n=1). At least 3 independent experiments (n=3) were performed and used for statistical analyses for each analysis. […] For the differentiation assay, at 24 h post-plating, cells were changed into differentiation medium, Neurobasal A, containing 5 μM forskolin (Sigma-Aldrich, F-6886) and 1 μM retinoic acid (Sigma-Aldrich, R-2625) for 4 d, followed by fixation with 4% paraformaldehyde for 30 min, and then washed with Dulbecco's Phosphate Buffered Saline (DPBS), pH 7.4 for 30 min. Immunocytochemistry staining was carried out as described (Guo et al., Nature Med. (2011); Guo et al., Neuron 70, 924-938 (2011); Luo et al., PLoS Genet 6 (2010); Liu et al., Cell Stem Cell 6 (2010)). Briefly, cells were preblocked using DPBS containing 5% normal goat serum (VECTOR, S-1000) and 0.1% Triton X-100 for 30 min, followed by overnight incubation with primary antibodies: mouse anti-Tuj1 (1:1000, Promega, G712A) and rabbit anti-S100β (1:1000, Dako, Z0334).
After washing with Dulbecco s Phosphate Buffered Saline (DPBS), cells were incubated with secondary antibodies that included goat anti-mouse 568 (1:1000, Invitrogen, A11031), goat anti-rabbit 488 (1:1000, Invitrogen, A11008) followed by counterstaining with the fluorescent nuclear dye 4′,6-diamidino-2′-phenylindole dihydrochloride (DAPI, Sigma-Aldrich, B2261). […] (VECTOR, H-1000), the numbers of Tuj1, GFAP-positive cells were quantified using an Olympus BX51 microscope equipped with a MicroFire digital camera (Optronics) and a motorized stage using a 20× objective lens. The quantification was carried out using an unbiased stereology method with assistance from StereoInvestigator software (MBF Biosciences). The percentage of differentiated cells was calculated as the number of Tuj1- or GFAP-labeled cells divided by the total number of cells stained with DAPI.

[4] = system: Fmr1 KO and wildtype NPCs; assay: Western blot analyses of p-AKT, p-MDM2, MDM2 and P53 in NPCs; conditions: total AKT as loading control
[5] = Fmr1 KO NPCs, 1 μM MK2206, 2 μM Nutlin-3, 1 μM RG7112, 4 μM YH239-EE
[6] = wildtype NPCs, 1 μM MK2206, 2 μM Nutlin-3
[7] = Fmr1 KO NPCs, 1 μM MK2206, 2 μM Nutlin-3, 1 μM RG7112

Structure (SMILES) | P53 expression ([1]; Fmr1 KO NPCs) | p-MDM2 (Ser166) ([1]; Fmr1 KO NPCs) | total MDM2 ([1]; Fmr1 KO NPCs) | p-MDM2 (Ser166) ([1]; wildtype NPCs) | total MDM2 ([1]; wildtype NPCs) | cell proliferation (BrdU+ cells) [2, 5] | cell proliferation (BrdU+ cells) [2, 6] | astroglial differentiation (GFAP+) [3, 7] | neuronal differentiation (Tuj1+) [3, 7] | astroglial differentiation (GFAP+) [3, 6] | neuronal differentiation (Tuj1+) [3, 6] | p-AKT ([4]; Fmr1 KO NPCs) | p-AKT ([4]; wildtype NPCs)
NC1(c2ccc(-c3nc4ccn5c(=O)[nH]nc5c4cc3-c3ccccc3)cc2)CCC1 [MK-2206] | enhanced P53 expression | reduced p-MDM2 | without affecting total MDM2 | reduced p-MDM2 | without affecting total MDM2 | decreased cell proliferation | decreased cell proliferation | decreased | increased neuronal differentiation | decreased | increased neuronal differentiation | reduced p-AKT | reduced p-AKT
CCOc1cc(C(C)(C)C)ccc1C1=N[C@@](C)(c2ccc(Cl)cc2)[C@@](C)(c2ccc(Cl)cc2)N1C(=O)N1CCN(CCCS(C)(=O)=O)CC1 [RG7112] |  |  |  |  |  | rescued the cell proliferation phenotype |  | rescued astroglial differentiation phenotypes | rescued neuronal differentiation phenotypes |  |  |  | 
CCOC(=O)c1[nH]c2cc(Cl)ccc2c1C(C(=O)NC(C)(C)C)N(C=O)Cc1ccc(Cl)cc1 (centres unmarked) [YH239-EE] |  |  |  |  |  | rescued the cell proliferation phenotype |  |  |  |  |  |  | 
